Test results as given in patent US20250129074A1, “CHIMERIC COMPOUND FOR TARGETED DEGRADATION OF ANDROGEN RECEPTOR PROTEIN, PREPARATION METHOD THEREFOR, AND MEDICAL USE THEREOF” (Jiangsu Hengrui Pharmaceuticals Co., Ltd., priority 2021, published 2025).
Where two headings read alike, the source gives them in different places.

Key:
LNCaP cells = test: Inhibition of LNCaP proliferation (CellTiter-Glo); type: cell-based; details: Homo sapiens, 144 h, 0.1 nM R1881, six days; for Emax: read-out: Max (maximum proliferation inhibition rate)
Method: The plate was incubated in a 37° C., 5% CO2 cell incubator for three days. […] A blank control cell well containing 0.5% DMSO and a cell-free vehicle control well were set up. The plate was incubated in a 37° C., 5% CO2 cell incubator for six days.

androgen receptor (AR) = biological target: T1, androgen receptor (AR) (Homo sapiens, UniProt P10275, T878A); test: Degradation activity on androgen receptor in LNCaP cells (AR ELISA); type: cell-based; details: for Dmax: read-out: Max (maximum AR degradation rate)
T1 construct: host or cells: LNCaP human prostate cancer cells
T1 sequence (P10275 1-920 T878A): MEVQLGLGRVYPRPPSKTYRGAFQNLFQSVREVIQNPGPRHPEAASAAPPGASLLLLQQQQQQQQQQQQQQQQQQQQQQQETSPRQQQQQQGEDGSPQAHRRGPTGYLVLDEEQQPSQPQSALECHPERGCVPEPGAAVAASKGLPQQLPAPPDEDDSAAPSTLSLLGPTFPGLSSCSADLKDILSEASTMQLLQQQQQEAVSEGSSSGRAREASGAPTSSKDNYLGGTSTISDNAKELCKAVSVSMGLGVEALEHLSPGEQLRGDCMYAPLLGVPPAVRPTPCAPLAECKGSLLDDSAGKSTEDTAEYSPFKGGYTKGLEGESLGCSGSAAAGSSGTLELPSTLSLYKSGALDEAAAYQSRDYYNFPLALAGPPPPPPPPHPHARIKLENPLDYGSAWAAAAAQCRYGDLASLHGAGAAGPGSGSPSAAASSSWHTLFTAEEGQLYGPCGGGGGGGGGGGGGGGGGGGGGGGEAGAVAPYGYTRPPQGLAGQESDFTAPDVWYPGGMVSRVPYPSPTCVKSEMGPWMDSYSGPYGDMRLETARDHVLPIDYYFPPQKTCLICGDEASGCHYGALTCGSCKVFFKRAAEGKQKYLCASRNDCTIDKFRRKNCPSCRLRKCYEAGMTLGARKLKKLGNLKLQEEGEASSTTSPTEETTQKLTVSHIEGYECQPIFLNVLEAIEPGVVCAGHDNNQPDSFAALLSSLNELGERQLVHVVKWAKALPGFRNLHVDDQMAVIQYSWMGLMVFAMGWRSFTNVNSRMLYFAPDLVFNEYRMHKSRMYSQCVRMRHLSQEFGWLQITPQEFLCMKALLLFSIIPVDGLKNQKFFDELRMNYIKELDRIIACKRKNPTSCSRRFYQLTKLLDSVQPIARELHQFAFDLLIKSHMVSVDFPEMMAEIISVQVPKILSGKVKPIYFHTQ
Method: The plate was incubated in a 37° C., 5% CO2 cell incubator for three days. […] A blank control cell well containing 0.5% DMSO was set up. The plate was incubated in a 37° C., 5% CO2 cell incubator for 24 hours. […] The lysate was well mixed by pipetting up and down and then centrifuged at 4000 rpm at 4° C. for 10 minutes. […] The plate was sealed and incubated in a 37° C. incubator for 1 hour. […] The plate was sealed and then incubated in a 37° C. incubator for 30 minutes.

[1] = 0.1 nM R1881, 24 hours, read-out: LNCaP DC50
[2] = read-out: LNCaP DC50, 0.1 nM R1881, 24 hours

SMILES	IC50 (LNCaP cells) [nM]	Emax (LNCaP cells) [%]	DC50 (androgen receptor (AR); [1]) [nM]	Dmax (androgen receptor (AR); 0.1 nM R1881, 24 hours) [%]	DC50 (androgen receptor (AR); [2]) [nM]
C[C@H]1CC2(CCN(c3ccc(C(=O)N4CCC(N5CCN(c6cccc(NC7CCC(=O)NC7=O)c6)CC5)CC4)cc3)CC2)CN1c1ccc(C#N)c(Cl)c1 (stereo partly drawn) [Example 10, 2-Chloro-4-((3S)-8-(4-(4-(4-(3-((2,6-dioxopiperidin-3-yl)amino)phenyl)piperazin-1-yl)piperidine-1-carbonyl)phenyl)-3-methyl-2,8-diazaspiro[4.5]decan-2-yl)benzonitrile]	93	70	2.5	97	
C[C@H]1CC2(CCN(c3ccc(C(=O)N4CCC(CN5CCN(c6cccc(NC7CCC(=O)NC7=O)c6)CC5)CC4)nn3)CC2)CN1c1ccc(C#N)c(Cl)c1 (stereo partly drawn) [Example 13, 2-Chloro-4-((3S)-8-(6-(4-((4-(3-((2,6-dioxopiperidin-3-yl)amino)phenyl)piperazin-1-yl)methyl)piperidine-1-carbonyl)pyridazin-3-yl)-3-methyl-2,8-diazaspiro[4.5]decan-2-yl)benzonitrile]	106	56	0.5	96	
C[C@H]1CC2(CCN(c3ccc(C(=O)N4CC(CN5CCN(c6cccc(NC7CCC(=O)NC7=O)c6)CC5)C4)cc3)CC2)CN1c1ccc(C#N)c(Cl)c1 (stereo partly drawn) [Example 14, 2-Chloro-4-((3S)-8-(4-(3-((4-(3-((2,6-dioxopiperidin-3-yl)amino)phenyl)piperazin-1-yl)methyl)azetidine-1-carbonyl)phenyl)-3-methyl-2,8-diazaspiro[4.5]decan-2-yl)benzonitrile]	57	69	1.9	96	
C[C@H]1CC2(CCN(c3ccc(C(=O)N4CCC(CN5CCN(c6cccc(NC7CCC(=O)NC7=O)c6)CC5)CC4)c(F)c3)CC2)CN1c1ccc(C#N)c(Cl)c1 (stereo partly drawn) [Example 16, 2-Chloro-4-((3S)-8-(4-(4-((4-(3-((2,6-dioxopiperidin-3-yl)amino)phenyl)piperazin-1-yl)methyl)piperidine-1-carbonyl)-3-fluorophenyl)-3-methyl-2,8-diazaspiro[4.5]decan-2-yl)benzonitrile]	84	70		97	3.9
C[C@H]1CC2(CCN(c3cnc(C(=O)N4CCC(CN5CCN(c6cccc(NC7CCC(=O)NC7=O)c6)CC5)CC4)cn3)CC2)CN1c1ccc(C#N)c(Cl)c1 (stereo partly drawn) [Example 17, 2-Chloro-4-((3S)-8-(5-(4-((4-(3-((2,6-dioxopiperidin-3-yl)amino)phenyl)piperazin-1-yl)methyl)piperidine-1-carbonyl)pyrazin-2-yl)-3-methyl-2,8-diazaspiro[4.5]decan-2-yl)benzonitrile]	112	74		97	3
C[C@H]1CC2(CCN(c3ccc(C(=O)N4CCC(CN5CCN(c6cccc(NC7CCC(=O)NC7=O)c6)CC5)CC4)cn3)CC2)CN1c1ccc(C#N)c(Cl)c1 (stereo partly drawn) [Example 18, 2-Chloro-4-((3S)-8-(5-(4-((4-(3-((2,6-dioxopiperidin-3-yl)amino)phenyl)piperazin-1-yl)methyl)piperidine-1-carbonyl)pyridin-2-yl)-3-methyl-2,8-diazaspiro[4.5]decan-2-yl)benzonitrile]	123	72	5.8	96	
C[C@H]1CC2(CCN(c3ccc(C(=O)N4CCC(CN5CCC(c6cccc(NC7CCC(=O)NC7=O)c6)CC5)CC4)cc3)CC2)CN1c1ccc(C#N)c(Cl)c1 (stereo partly drawn) [Example 19, 2-Chloro-4-((3S)-8-(4-(4-((4-(3-((2,6-dioxopiperidin-3-yl)amino)phenyl)piperidin-1-yl)methyl)piperidine-1-carbonyl)phenyl)-3-methyl-2,8-diazaspiro[4.5]decan-2-yl)benzonitrile]	60	68	1.8	96	
C[C@H]1CC2(CCN(c3ccc(C(=O)N4CCC(CN5CCC(c6cccc(NC7CCC(=O)NC7=O)c6)CC5)CC4)nn3)CC2)CN1c1ccc(C#N)c(Cl)c1 (stereo partly drawn) [Example 20, 2-Chloro-4-((3S)-8-(6-(4-((4-(3-((2,6-dioxopiperidin-3-yl)amino)phenyl)piperidin-1-yl)methyl)piperidine-1-carbonyl)pyridazin-3-yl)-3-methyl-2,8-diazaspiro[4.5]decan-2-yl)benzonitrile]	15	59	0.4	92	
C[C@H]1CC2(CCN(c3ccc(C(=O)N4CC(CN5CCC(c6cccc(NC7CCC(=O)NC7=O)c6)CC5)C4)nn3)CC2)CN1c1ccc(C#N)c(Cl)c1 (stereo partly drawn) [Example 21, 2-Chloro-4-((3S)-8-(6-(3-((4-(3-((2,6-dioxopiperidin-3-yl)amino)phenyl)piperidin-1-yl)methyl)azetidine-1-carbonyl)pyridazin-3-yl)-3-methyl-2,8-diazaspiro[4.5]decan-2-yl)benzonitrile]	16	60	0.5	94	
C[C@H]1CC2(CCN(c3ccc(C(=O)N4CCC(CN5CCN(c6cc(NC7CCC(=O)NC7=O)ccn6)CC5)CC4)cc3)CC2)CN1c1ccc(C#N)c(Cl)c1 (stereo partly drawn) [Example 24, 2-Chloro-4-((3S)-8-(4-(4-((4-(4-((2,6-dioxopiperidin-3-yl)amino)pyridin-2-yl)piperazin-1-yl)methyl)piperidine-1-carbonyl)phenyl)-3-methyl-2,8-diazaspiro[4.5]decan-2-yl)benzonitrile]	659	54	9.1	94	
C[C@H]1CC2(CCN(c3ccc(C(=O)N4CCC(CN5CCN(c6ccc(NC7CCC(=O)NC7=O)cc6)CC5)CC4)cc3)CC2)CN1c1ccc(C#N)c(Cl)c1 (stereo partly drawn) [Example 25, 2-Chloro-4-((3S)-8-(4-(4-((4-(4-((2,6-dioxopiperidin-3-yl)amino)phenyl)piperazin-1-yl)methyl)piperidine-1-carbonyl)phenyl)-3-methyl-2,8-diazaspiro[4.5]decan-2-yl)benzonitrile]	24	60	1.8	96	
C[C@H]1CC2(CCN(c3ccc(C(=O)N4CCC(CN5CCC(c6ccc(NC7CCC(=O)NC7=O)cc6)CC5)CC4)cc3)CC2)CN1c1ccc(C#N)c(Cl)c1 (stereo partly drawn) [Example 26, 2-Chloro-4-((3S)-8-(4-(4-((4-(4-((2,6-dioxopiperidin-3-yl)amino)phenyl)piperidin-1-yl)methyl)piperidine-1-carbonyl)phenyl)-3-methyl-2,8-diazaspiro[4.5]decan-2-yl)benzonitrile]	7.8	63	2.5	94	
C[C@H]1CC2(CCN(c3ccc(C(=O)N4CCC(CN5CCC(c6ccc(NC7CCC(=O)NC7=O)cc6F)CC5)CC4)cc3)CC2)CN1c1ccc(C#N)c(Cl)c1 (stereo partly drawn) [Example 27, 2-Chloro-4-((3S)-8-(4-(4-((4-(4-((2,6-dioxopiperidin-3-yl)amino)-2-fluorophenyl)piperidin-1-yl)methyl)piperidine-1-carbonyl)phenyl)-3-methyl-2,8-diazaspiro[4.5]decan-2-yl)benzonitrile]	7.9	64	7.7	96	
